Results published in US10800789B2, “Antiviral compounds” (Gilead Pharmasset LLC, priority 2012, dated 2020).
Like-named read-outs stand apart in the source and are kept apart here.

What was measured:
[1] = test system: stable HCV 1a RLuc replicon cells (dicistronic genotype 1a H77 replicon); assay: Renilla luciferase HCV replicon reporter assay, genotype 1a; format: cell-based; conditions: Hepatitis C virus, 72 h, stable 1a H77 RLuc replicon cells
Summary of the method: (§1)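 First, 3-fold serial dilutions of compound went onto replicon cells, DMSO serving as no-inhibition control and ITMN-191 at >100×EC50 as positive control. Next came 72 h incubation, lysis and Renilla luciferase measurement. Finally, EC50 was calculated by non-linear regression; replicons covered genotypes 1a H77, 1b Con1, 2a JFH-1 (L31) and J6-NS5A chimera (M31).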

[2] = test system: NS5A chimeric genotype 2a JFH-1 replicon with genotype 2b MD2b-1 strain NS5A gene (M31 present); assay: Replicon assay, genotype 2b NS5A chimera; format: cell-based, HCV; conditions: Hepatitis C virus
Summary of the method: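 EC50 was fitted by non-linear regression to Renilla luciferase signal after 72 h of exposure to 3-fold serially diluted compound (10 mM DMSO stocks). Controls were DMSO (none) and ITMN-191 above 100×EC50 (full). Chimeric 2a replicons were used either stable or transiently transfected into Huh-Lunet cells.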

[3] = IV and PO single dose pharmacokinetic studies in SD rats; format: in vivo, male Sprague-Dawley (SD) rats; conditions: Sprague-Dawley, rat, plasma, male SD rats, PO 2 mg/kg vs IV infusion 1 mg/kg, read-out: Rat % F
Method: IV and PO Single Dose Pharmacokinetic Studies in SD Rats:
The pharmacokinetics of selected compounds was characterized in male Sprague-Dawley (SD) rats (250-300g). In this study, two groups of naïve purebred SD rats (N=3 per group, fasted over night) received the selected compound either as an intravenous (IV) infusion (1 mg/kg over 30 minutes) via the jugular vein or by oral gavage (2 mg/kg). The intravenous (IV) dosing vehicle was 5% ethanol, 35% polyethylene glycol 400 (PEG 400) and 60% water pH 2.0. The oral dosing vehicle was 5% ethanol, 55% PEG 400 and 40% citrate buffer pH 2.2.
Serial blood samples (approximately 0.3 mL each) were collected from jugular vein or other suitable vein at specified time points. For the IV infusion group, the blood samples were collected predose and at 0.25, 0.48, 0.58, 0.75, 1.5, 3, 6, 8, 12 and 24 hours after the start of infusion. For the oral group, the blood samples were collected predose and at 0.25, 0.50, 1, 2, 4, 6, 8, 12 and 24 hours after dosing. The blood samples were collected into VacutainerγM tubes containing EDTA-K3 as the anti-coagulant and were centrifuged at approximately 4° C. to obtain plasma. The plasma samples were stored at −20° C. until analysis by LC/MS/MS.
A bioanalytical method utilizing high performance liquid chromatography coupled to tandem mass spectrometry (LC/MS/MS) was developed for analysis of the selected compound in rat plasma. Detection was performed using selected reaction monitoring (SRM); Ions representing the precursor (M+H)^+ species was selected in quadrupole 1 (Q1) and collided with argon gas in the collision cell (Q2) to generate specific product ion, which was subsequently monitored by quadrupole 3 (Q3). Standard curve and quality control samples were prepared in male rat plasma and processed in the same way as the test samples to generate quantitative data.
Pharmacokinetic parameters were generated using non-compartmental pharmacokinetic analysis (Phoenix WinNonlin, version 6.3). Values below the lower limit of quantification (LLOQ) were assigned a value of zero if predose and treated as missing thereafter. Area under the curve (AUC) was calculated using the linear trapezoidal rule. The oral bioavailability (% F) was determined by comparison of the area under the curve (AUC) of the compound and/or a metabolite generated in plasma following oral administration to that generated following intravenous administration.

[4] = test system: stable HCV 1b RLuc replicon cells (dicistronic genotype 1b Con1 replicon); assay: Renilla luciferase HCV replicon reporter assay, genotype 1b; format: cell-based; conditions: Hepatitis C virus, 72 h, stable 1b Con1 RLuc replicon cells, 72 hours; read-out: 1b
Summary of the method: as §1

[5] = test system: NS5A chimeric genotype 1b Con1 replicon with genotype 3a S52 strain NS5A gene; assay: Replicon assay, genotype 3a NS5A chimera; format: cell-based, HCV; conditions: Hepatitis C virus
[6] = test system: NS5A chimeric genotype 1b Con1 replicon with genotype 4a ED43 strain NS5A gene; assay: Replicon assay, genotype 4a NS5A chimera; format: cell-based, HCV; conditions: Hepatitis C virus
[7] = test system: stable HCV 2a JFH-1 Rluc replicon cells (L31 present in NS5A); assay: Renilla luciferase HCV replicon reporter assay, genotype 2a JFH-1; format: cell-based; conditions: Hepatitis C virus
Summary of the method: as §1

[8] = test system: NS5A chimeric genotype 2a JFH-1 replicon with genotype 2a J6 strain NS5A gene (M31 present); assay: Replicon assay, genotype 2a J6 NS5A chimera; format: cell-based, HCV; conditions: Hepatitis C virus
Summary of the method: as §1

[9] = test system: Q30R in genotype 1a NS5A (1a Pi-Rluc replicon, Huh-7-derived cured-51 cells); assay: Replicon assay against resistance mutant 1a Q30R; format: cell-based, HCV; conditions: Hepatitis C virus
Summary of the method: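 Q30R introduced by site-directed mutagenesis into the 1a Pi-RLuc replicon; replicon RNA transiently transfected into cured-51 cells. Cells treated with 3-fold serially diluted compound for 72 h, then lysed and Renilla luciferase measured; EC50 by non-linear regression.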

[10] = 2BS, read-out: 2b (s), stably replicating replicon cells (s), activity range
[11] = read-out: 2b (s) (nM), genotype 2b MD2b-1 NS5A chimeric replicon (M31), stably replicating replicon cells (s)
[12] = read-out: 3a (s) (nM), genotype 3a NS5A chimeric replicon, stable replicon cells (s)
[13] = read-out: 3a (s), (s), activity range
[14] = read-out: 4a (s) (nM), genotype 4a NS5A chimeric replicon, stable replicon cells (s)
[15] = read-out: 4a (s), (s), activity range
[16] = read-out: 2a JFH (nM), genotype 2a JFH-1 replicon (L31 in NS5A), stable cells
[17] = read-out: 2a JFH, stable 2a JFH-1 Rluc replicon cells, L31 in NS5A, activity range
[18] = read-out: 2a J6 (t) (nM), genotype 2a J6 NS5A chimeric replicon (M31), transiently transfected (t) into Huh-Lunet cells
[19] = read-out: 2a J6 (t), transiently transfected (t) into Huh-Lunet cells, activity range
[20] = read-out: 2a J6 (s) (nM), genotype 2a J6 NS5A chimeric replicon (M31), stably replicating replicon cells (s)
[21] = read-out: 2a J6 (s), stably replicating replicon cells (s), activity range

Row | Structure (SMILES) | EC50 [1] [nM] | EC50 ([1]; activity range) [nM] | EC50 [2, 10] [nM] | EC50 [2, 11] [nM] | bioavailability [3] [%] | EC50 [4] [nM] | EC50 [5, 12] [nM] | EC50 [5, 13] [nM] | EC50 [6, 14] [nM] | EC50 [6, 15] [nM] | EC50 [7, 16] [nM] | EC50 [7, 17] [nM] | EC50 [8, 18] [nM] | EC50 [8, 19] [nM] | also measured
1 | COC(=O)N[C@H](C(=O)N1[C@@H](C)CC[C@H]1c1ncc(-c2ccc3c(c2)COc2cc4c(ccc5nc([C@@H]6C[C@H](C)CN6C(=O)[C@@H](NC(=O)OC)C6CCOCC6)[nH]c54)cc2-3)[nH]1)C(C)C [EI, methyl[(1 S)-2-[(2S,4S)-2-(9-{2-[(2S,5S)-1-{(2S)-2-[(methoxycarbonyl)amino]-3-methylbutanoyl}-5-methylpyrrolidin-2-yl]-1H-imidazol-5-yl}-1,11 dihydroisochromeno[4′,3′:6,7]naphtho[1,2-d]imidazol-2-yl)-4-methylpyrrolidin-1-yl]-2-oxo-1-(tetra hydro-2H-pyran-4-yl)ethyl]carbamate] | 0.025 | < 0.1 | < 0.1 | 0.048 | 4.4 | 0.048 | 0.077 | < 0.1 | 0.02 | < 0.1 | 0.033 | < 0.1 | 0.022 | < 0.1 | EC50 ([5]; read-out: 3a (t) (nM), genotype 3a NS5A chimeric replicon, transiently transfected (t)): 0.074 nM; EC50 ([5]; read-out: 3a (t), transiently transfected (t) into Huh-Lunet cells, activity range): < 0.1 nM
2 | CC[C@H]1CC[C@@H](c2ncc(-c3ccc4c(c3)COc3cc5c(ccc6nc([C@@H]7CC[C@H](C)N7C(=O)[C@@H](NC(=O)OC)C7CCOCC7)[nH]c65)cc3-4)[nH]2)N1C(=O)[C@@H](NC(=O)OC)C(C)C [EN, methyl[(1 S)-2-[(2S,5S)-2-(9-{2-[(2S,5S)-5-ethyl-1-{(2S)-2 [(methoxycarbonyl)amino]-3-methylbutanoyl}pyrrolidin-2-yl]-1H-imidazol-5-yl}-1,11 dihydroisochromeno[4′,3′:6,7]naphtho[1,2-d]imidazol-2-yl)-5-methylpyrrolidin-1-yl]-2-oxo-1(tetrahydro-2H-pyran-4-yl)ethyl]carbamate] | 0.018 | < 0.1 | < 0.1 | 0.095 | 29.9 | 0.034 | 0.061 | < 0.1 | – | – | 0.015 | < 0.1 | – | – | EC50 ([9]; read-out: 1a Q30R): < 0.1 nM; EC50 ([9]; read-out: 1a Q30R (nM)): 0.043 nM; EC50 ([2]; read-out: 2b (t) (nM), genotype 2b MD2b-1 NS5A chimeric replicon (M31), transiently transfected (t)): 0.052 nM; EC50 ([2]; read-out: 2b (t), transiently transfected (t) into Huh-Lunet cells, activity range): < 0.1 nM
3 | COC(=O)N[C@H](C(=O)N1C[C@@H](C)C[C@H]1c1nc2ccc3cc4c(cc3c2[nH]1)OCc1cc(-c2cnc([C@@H]3CC[C@H](C)N3C(=O)[C@@H](NC(=O)OC)[C@@H](C)OC)[nH]2)ccc1-4)C(C)C [GA] | 0.019 | < 0.1 | 0.1 to 0.999 | 0.245 | 3.2 | 0.035 | 0.063 | < 0.1 | 0.016 | < 0.1 | 0.018 | < 0.1 | 0.064 | < 0.1 | –
4 | CC[C@H]1CC[C@@H](c2ncc(-c3ccc4c(c3)COc3cc5c(ccc6nc([C@@H]7CC[C@H](CC)N7C(=O)[C@@H](NC(=O)OC)C7CCOCC7)[nH]c65)cc3-4)[nH]2)N1C(=O)[C@@H](NC(=O)OC)C1CCOCC1 [IE] | 0.042 | < 0.1 | < 0.1 | 0.065 | 2.2 | 0.054 | 0.198 | 0.1 to 0.999 | 0.039 | < 0.1 | 0.035 | < 0.1 | 0.042 | < 0.1 | –
5 | CC[C@H]1CC[C@@H](c2ncc(-c3ccc4c(c3)COc3cc5c(ccc6nc([C@@H]7CC[C@H](CC)N7C(=O)[C@@H](NC(=O)OC)C7CCOCC7)[nH]c65)cc3-4)[nH]2)N1C(=O)[C@@H](NC(=O)OC)C(C)C [IG] | 0.027 | < 0.1 | 0.1 to 0.999 | 0.25 | 28.2 | 0.035 | 0.787 | 0.1 to 0.999 | 0.025 | < 0.1 | 0.034 | < 0.1 | 0.122 | 0.1 to 0.999 | –
6 | CC[C@H](C)[C@H](NC(=O)OC)C(=O)N1[C@@H](C)CC[C@H]1c1ncc(-c2ccc3c(c2)COc2cc4c(ccc5nc([C@@H]6C[C@@H]7CCC[C@@H]7N6C(=O)[C@@H](NC(=O)OC)C6CCOCC6)[nH]c54)cc2-3)[nH]1 [IP] | 0.025 | < 0.1 | < 0.1 | 0.074 | 18.9 | 0.029 | 0.067 | < 0.1 | 0.027 | < 0.1 | 0.033 | < 0.1 | 0.041 | < 0.1 | –
7 | COC(=O)N[C@H](C(=O)N1[C@H](c2ncc(-c3ccc4c(c3)COc3cc5c(ccc6nc([C@@H]7C[C@@H]8CCC[C@@H]8N7C(=O)[C@@H](NC(=O)OC)C7CCOCC7)[nH]c65)cc3-4)[nH]2)C[C@@H]2CCC[C@@H]21)C(C)C [IT] | 0.012 | < 0.1 | < 0.1 | 0.064 | 16.2 | 0.017 | 0.032 | < 0.1 | 0.004 | < 0.1 | 0.017 | < 0.1 | – | – | EC50 [8, 20]: 0.007 nM; EC50 [8, 21]: < 0.1 nM
8 | CC[C@H]1CC[C@@H](c2nc3ccc4cc5c(cc4c3[nH]2)OCc2cc(-c3cnc([C@@H]4C[C@@H]6CCC[C@@H]6N4C(=O)[C@@H](NC(=O)OC)C(C)C)[nH]3)ccc2-5)N1C(=O)[C@@H](NC(=O)OC)C1CCOCC1 [IU] | 0.016 | < 0.1 | 0.1 to 0.999 | 0.119 | 26.5 | 0.022 | 0.098 | < 0.1 | 0.004 | < 0.1 | 0.02 | < 0.1 | – | – | EC50 [8, 20]: 0.028 nM; EC50 [8, 21]: < 0.1 nM
